19 compounds from patent publication US5691373A, “Nonpeptide endothelin antagonists I” (Warner-Lambert Company, priority 1995, dated 1997) can be followed below.

Where a name gives a salt, the structure may show the parent alone. Read-outs that look alike come from different tables or passages of the source.

In experiment [1] the target is T1, ETA (Oryctolagus cuniculus, UniProt A5A8K3).
T1 sequence (A5A8K3 21-427): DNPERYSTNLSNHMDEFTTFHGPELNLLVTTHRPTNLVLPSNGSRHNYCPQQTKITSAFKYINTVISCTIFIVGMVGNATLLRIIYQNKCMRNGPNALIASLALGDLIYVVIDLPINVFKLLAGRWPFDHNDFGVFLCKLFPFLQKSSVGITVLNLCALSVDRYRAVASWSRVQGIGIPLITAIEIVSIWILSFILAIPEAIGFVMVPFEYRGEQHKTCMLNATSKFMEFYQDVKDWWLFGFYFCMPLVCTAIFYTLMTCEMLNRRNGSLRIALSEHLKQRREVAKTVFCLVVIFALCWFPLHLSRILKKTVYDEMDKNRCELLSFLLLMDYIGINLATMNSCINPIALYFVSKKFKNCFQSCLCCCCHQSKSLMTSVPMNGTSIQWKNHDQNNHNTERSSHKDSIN

Experiment [2] addresses T1, ETA. The source holds these as a separate data set.
Another experiment addresses T2, ETB (Rattus norvegicus, UniProt P21451).
T2 sequence (P21451 27-442): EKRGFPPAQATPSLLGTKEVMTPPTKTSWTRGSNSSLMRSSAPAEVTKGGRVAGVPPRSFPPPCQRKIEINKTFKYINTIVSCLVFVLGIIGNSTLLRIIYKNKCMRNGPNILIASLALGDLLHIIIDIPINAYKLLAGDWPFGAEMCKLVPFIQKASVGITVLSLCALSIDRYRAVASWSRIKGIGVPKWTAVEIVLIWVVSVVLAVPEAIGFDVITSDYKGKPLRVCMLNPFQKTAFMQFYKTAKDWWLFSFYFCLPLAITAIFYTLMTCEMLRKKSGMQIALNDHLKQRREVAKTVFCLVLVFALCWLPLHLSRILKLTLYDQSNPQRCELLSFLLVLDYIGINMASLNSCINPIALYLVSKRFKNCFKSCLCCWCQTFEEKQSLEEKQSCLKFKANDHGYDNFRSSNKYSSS

The next experiment deals with T3, human ETB receptor (Homo sapiens, UniProt P24530).
T3 construct: expressed in transfected cells; host or cells: CHO-K1 cells, pRc-CMW (so in the source) expression vector, electroporation; membranes used
T3 sequence (P24530 27-442): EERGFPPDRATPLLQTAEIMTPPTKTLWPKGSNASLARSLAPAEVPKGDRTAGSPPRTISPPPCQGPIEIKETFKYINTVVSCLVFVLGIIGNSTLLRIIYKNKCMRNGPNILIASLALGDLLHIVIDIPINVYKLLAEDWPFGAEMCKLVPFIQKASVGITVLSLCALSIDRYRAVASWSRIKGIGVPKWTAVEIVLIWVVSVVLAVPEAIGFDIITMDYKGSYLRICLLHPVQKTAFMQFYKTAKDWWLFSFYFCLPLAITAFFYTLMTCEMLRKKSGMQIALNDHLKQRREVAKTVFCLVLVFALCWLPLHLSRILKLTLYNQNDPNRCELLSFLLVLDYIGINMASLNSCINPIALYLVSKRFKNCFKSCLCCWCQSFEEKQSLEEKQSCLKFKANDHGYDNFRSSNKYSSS
Nature of the experiment: ERBA-B: [125I]-ET-1 binding, recombinant human ETB receptor expressed in CHO-K1 cells. Particulars: human cloned ETB receptor, read-out: ERBA-B IC50, human cloned receptor data.

For experiment [3], the target named is T1, ETA. Kind of experiment: VERA-A: antagonism of ET-1 stimulated vasoconstriction in the rabbit femoral artery (ETA). It is filed as cell-based. Particulars: ET-1, rabbit femoral artery; for Kb: read-out: VERA-A pA2 (converted). As to the method: Male New Zealand rabbits were killed by cervical dislocation and exsanguination. Femoral and pulmonary arteries were isolated, cleaned of connective tissue, and cut into 4-mm rings. The endothelium was denuded by placing the rings over hypodermic tubing (32 gauge for femoral rings and 28 gauge for pulmonary rings, Small Parts, Inc, Miami, Fla.) and gently rolling them. […] Resting tension was adjusted to 3.0 g for femoral and 4.0 g pulmonary arteries; the rings were left for 90 minutes to equilibrate.

The mark [4] stands for this setting: ERBA-A IC50, [125I]-ET-1, rabbit renal artery vascular smooth muscle cells.

For the compound `COc1ccc(C2(O)OC(=O)C(c3ccc4c(c3)OCO4)=C2Cc2cccc(Cl)c2)cc1` (stereo not drawn) [Example 75, 3-Benzo[1,3]dioxol-5-yl-4-(3-chlorobenzyl)-5-hydroxy-5-(4-methoxyphenyl)-5H -furan-2-one], the values for the IC50 against ETA [1], at ETA [2] (setting [4]) and at ETB were 71 nM, 16 nM and 1200 nM, respectively.

In the case of `COc1ccc(C2(O)OC(=O)C(c3ccc4c(c3)OCO4)=C2Cc2ccc(C)cc2)cc1` (stereo not drawn) [Example 76], the IC50 came to 520 nM at ETA [1], 50 nM against ETA [2] (setting [4]) and 390 nM against ETB.

On to `COc1ccc(C2(O)OC(=O)C(c3ccc4c(c3)OCO4)=C2Cc2ccc(N(C)C)cc2)cc1` (stereo not drawn) [Example 85, 3-Benzo[1,3]dioxol-5-yl-4-(4-dimethylaminobenzyl)-5-hydroxy-5-(4-methoxyphenyl)-5H-furan-2-one], for which the IC50 at human ETB receptor is 1600 nM; against ETA [1], 200 nM; against ETA [2] (setting [4]), 23 nM. Further, at ETA [3], the Kb is 398 nM.

Take `COc1ccc(C2(O)OC(=O)C(c3ccc4c(c3)OCO4)=C2Cc2ccc(OC)c(C)c2)cc1` (stereo not drawn) [Example 89, 3-Benzo[1,3]dioxol-5-yl-5-hydroxy-4-(4-methoxy-3-methylbenzyl)-5-(4-methoxyphenyl)-5H-furan-2-one]: the “VERA-A pA2” value at ETA [3] is reported as 6.3. The IC50 on ETA [1] (read-out: AAR-A, ET-1 (0.3 nM) stimulated arachidonic acid release) came out at 39 nM; on ETA [2] (read-out: ERBA-A IC50, [125I]-ET-1, rabbit renal artery vascular smooth muscle cells) it was 6 nM.

Turning to `COc1ccc(C2(O)OC(=O)C(c3ccc4c(c3)OCO4)=C2Cc2cccc(C)c2)cc1` (stereo not drawn) [Example 90, 3-Benzo[1,3]dioxol-5-yl-5-hydroxy-5-(4-methoxyphenyl)-4-(3-methylbenzyl)-5H -furan-2-one], the IC50 at human ETB receptor was 3500 nM; at ETA [1], 88 nM; at ETA [2] (setting [4]), 20 nM.

Turning to `CCCOc1cccc(CC2=C(c3cc(OC)cc(OC)c3)C(=O)OC2(O)c2ccc(OC)cc2)c1` (stereo not drawn) [Example 126, 3-(3,5-Dimethoxyphenyl)-5-hydroxy-5-(4-methoxyphenyl)-4-(3-propoxybenzyl)-5 H-furan-2-one], the IC50 on human ETB receptor is 1500 nM; at ETA [1] it was 86 nM; against ETA [2] (setting [4]), 10 nM. For the same compound, the Kb on ETA [3] was 200 nM.

Consider `COc1ccc(C2(O)OC(=O)C(c3cc(OC)cc(OC)c3)=C2Cc2cccnc2)cc1` (stereo not drawn) [Example 133, 3-(3,5-Dimethoxyphenyl)-5-hydroxy-5-(4-methoxyphenyl)-4-pyridin-3methyl-5H-furan-2-one], for which the IC50 at human ETB receptor stood at 6800 nM; against ETA [1], 76 nM; at ETA [2] (setting [4]) it was 30 nM.

For `C=CCOc1cc(CC2=C(c3cc(OC)cc(OC)c3)C(=O)OC2(O)c2ccc(OC)cc2)ccc1OC` (stereo not drawn) [Example 135, 4-(3-Allyloxy-4-methoxybenzyl)-3-(3,5-dimethoxyphenyl)-5-hydroxy-5-(4-methoxyphenyl)-5H-furan-2-one], the Kb at ETA [3] is 126 nM. Moreover, the results for the IC50 against ETA [2] (setting [4]) and at ETB were 9 nM and 330 nM, respectively.

For `COc1ccc(C2(O)OC(=O)C(c3ccc4c(c3)OCO4)=C2Cc2cccnc2)cc1` (stereo not drawn) [Example 160, 3-Benzo[1,3]dioxol-5-yl-5-hydroxy-5-(4-methoxyphenyl)-4-pyridin-3-ylmethyl-5H-furan-2-one], the IC50 worked out at 55 nM on ETA [1] and 350 nM on ETA [2] (setting [4]).

Regarding `COC(=O)c1ccc(CC2=C(c3ccc4c(c3)OCO4)C(=O)OC2(O)c2ccc(OC)cc2)cc1` (stereo not drawn) [Example 182, 4-[4-Benzo[1,3]dioxol-5-yl-2-hydroxy-2-(4-methoxyphenyl)-5-oxo-2,5-dihydrof uran-3-ylmethyl]benzoic acid methyl ester], the IC50 turned out to be 2000 nM at human ETB receptor, 50 nM at ETA [1] and 16 nM at ETA [2] (setting [4]).

On to `COc1ccc(C2(O)OC(=O)C(c3ccc4c(c3)OCO4)=C2Cc2ccccc2)cc1OC` (stereo not drawn) [Example 190, 3-Benzo[1,3]dioxol-5-yl-4-benzyl-5-(3,4-dimethoxyphenyl)-5-hydroxy-5H-furan-2-one], for which the IC50 at ETA [1] is 780 nM; against ETA [2] (setting [4]) it was 65 nM; against ETB, 750 nM.

Regarding `COc1ccc(C2(O)OC(=O)C(c3ccc4c(c3)OCO4)=C2Cc2cc(OC)c(OC)c(OC)c2)cc1` (stereo not drawn) [Example 281, 3-benzo[1,3]dioxol-5-yl-5-hydroxy-5-(4-methoxyphenyl)-4-(3,4,5-trimethoxybenzyl)-5H-furan-2-one], the results for the IC50 against ETA [1] and against ETA [2] (setting [4]) were 7700 nM and 0.6 nM, respectively.

As to `COc1ccc(C2(O)OC(=O)C(c3cc(OC)c4c(c3)OCO4)=C2Cc2ccccc2)cc1C` (stereo not drawn) [Example 360, 4-Benzyl-5-hydroxy-3-(7-methoxy-benzo[1,3]dioxol-5-yl)-5-(4-methoxy-3-methyl-phenyl)-5H-furan-2-one], the IC50 on human ETB receptor is 1350 nM; on ETA [2] (setting [4]) it was 9.9 nM. Further, the Kb at ETA [3] was 100 nM.

Turning to `COc1ccc(C2(O)OC(=O)C(c3cc(OC)c4c(c3)OCO4)=C2Cc2cc(OC)c(OC)c(OC)c2)cc1C` (stereo not drawn) [Example 361, 5-Hydroxy-3-(7-methoxy-benzo[1,3]dioxol-5-yl)-5-(4-methoxy-3-methyl-phenyl) -4-(3,4,5-trimethoxy-benzyl)-5H-furan-2-one], the IC50 turned out to be 220 nM at human ETB receptor and 2 nM on ETA [2] (setting [4]). Moreover, on ETA [3], the Kb is 39.8 nM.

`COc1cc(OC)cc(C2=C(Cc3cc(OC)c(OC)c(OC)c3)C(O)(c3ccc(OC)c(C)c3)OC2=O)c1` (stereo not drawn) [Example 382, 3-(3,5-Dimethoxy-phenyl)-5-hydroxy-5-(4-methoxy-3-methyl-phenyl)-4-(3,4,5-trimethoxy-benzyl)-5H-furan-2-one]: the IC50 at human ETB receptor was greater than 250 nM; against ETA [2] (setting [4]) it was 0.9 nM. For the same compound, the Kb at ETA [3] is 158 nM.

As to `COc1ccc(C2(O)OC(=O)C(c3ccc4c(c3)OCO4)=C2Cc2cc(OC)c(OC)c(OC)c2)cc1C` (stereo not drawn) [Example 383, 3-Benzo[1,3]dioxol-5-yl-5-hydroxy-5-(4-methoxy-3-methyl-phenyl)-4-(3,4,5-trimethoxy-benzyl)-5H-furan-2-one], the IC50 on human ETB receptor is 290 nM; at ETA [1], 7400 nM; against ETA [2] (setting [4]), 0.5 nM.

Take `COc1cc(OC)cc(/C(C(=O)O)=C(\Cc2ccc(NC(C)=O)cc2)C(=O)c2ccc(OC)c(C)c2)c1` [Example 386, Potassium 3-(4-Acetylamino-benzyl)-2-(3,5-dimethoxyphenyl)-4-(4-methoxy-3-methyl-phenyl)-4-oxo-but-2-enoate]: the results for the IC50 on human ETB receptor and against ETA [2] (setting [4]) were 2100 nM and 5 nM, respectively. The Kb at ETA [3] was 126 nM.

For the compound `COc1ccc(C2(O)OC(=O)C(c3cc(OC)cc(OC)c3)=C2Cc2ccc(OC(C)C)c(OC)c2)cc1` (stereo not drawn) [Example 389, 3-(3,5-Dimethoxy-phenyl)-5-hydroxy-4-(4-isopropoxy-3-methoxy-benzyl)-5-(4-methoxy-phenyl)-5H-furan-2-one], the IC50 on human ETB receptor was found to be 1100 nM; at ETA [1] it was 2.4 nM; on ETA [2] (setting [4]), 3.6 nM.

As for `COC(=O)c1cccc(C/C(C(=O)c2ccc(OC)cc2)=C(/C(=O)O)c2ccc3c(c2)OCO3)c1` [Example 405, 1,3-Benzodioxol-5-acetic acid, α-[1-[[3-(methoxycarbonyl)phenyl]methyl]-2-(4-methoxyphenyl)-2-oxoethylene]-, monopotassium salt], the IC50 was 2700 nM at human ETB receptor and 7.4 nM against ETA [2] (setting [4]). In addition, at ETA [3], the Kb was 251 nM.
